# Measured values taken from paper PMC6476934, “A Flavor Lactone Mimicking AHL Quorum-Sensing Signals Exploits the Broad Affinity of the QsdR Regulator to Stimulate Transcription of the Rhodococcal qsd Operon Involved in Quorum-Quenching and Biocontrol Activities” (Frontiers in Microbiology, 2019).
# Legend:
# QsdR = biological target: T1, QsdR (Rhodococcus erythropolis, UniProt A0A0C2W9F0); test: EMSA with biotinylated qsdR-qsdA intergenic DNA, release of DNA; type: binding; settings: ligand/QsdR molecular ratio 0.1 to 100, 3 μg QsdR, 0.4 ng DNA, room temperature
# T1 construct: gene I3517_23075; qsdR ORF (563 bp NdeI-BamHI fragment) in pET19, His-tagged, E. coli BL21DE3, Ni-NTA; about 20 kDa; dimer
# T1 sequence (A0A0C2W9F0 1-186): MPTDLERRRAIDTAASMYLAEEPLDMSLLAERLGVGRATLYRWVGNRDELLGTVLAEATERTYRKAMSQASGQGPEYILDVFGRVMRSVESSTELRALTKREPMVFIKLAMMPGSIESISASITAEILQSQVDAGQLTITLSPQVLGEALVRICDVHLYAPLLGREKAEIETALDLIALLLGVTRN
# [1] = biological target: T2, QsdR (His-tagged) (Rhodococcus erythropolis R138?) (UniProt A0A0C2W9F0); test: EMSA; settings: LightShift Chemiluminescent EMSA Kit buffer (composition, salt, pH not stated); QsdR in Qiagen elution buffer with 50% glycerol; 20 min at room temperature …
# T2 sequence: T1 sequence (A0A0C2W9F0 1-186)
compound,measurement,setting,value
"CCC1CCC(=O)O1 (stereo not drawn) [GCL, γ-caprolactone]","EMSA with biotinylated qsdR-qsdA intergenic DNA, release of DNA",QsdR; GCL in methanol-water 20:80,The addition of increasing amounts of GCL led to a proportional increase in the amount
"N[C@H]1CCOC1=O [HSL, homoserine lactone]","EMSA with biotinylated qsdR-qsdA intergenic DNA, release of DNA","QsdR; HSL in 10 mM Tris pH 7, positive control",inhibition of the DNA-binding activity of QsdR was also observed in the presence of HSL
GGTAGGCATCGGGACATTCTCTCCGGTTGTCCGGTACTGCACAATTTCGGCGGTCGAACAGAGGTGGGCTTCGGGTGGCTCGAGCCTATTGACGAACCAAGCGACGTGAGACACACTAGCTCATTGTCTCATGTTAGTGATGGCGATCACAGTCAGGGGTTCGATCGATGAG (double strand) [qsdR-qsdA intergenic DNA fragment],binding,[1],binds
